Laboratory results from patent US11639530B2, “CD133 related to anticancer agent resistance in colon cancer and use thereof” (KOREA UNIVERSITY RESEARCH AND BUSINESS FOUNDATION, priority 2019, dated 2023).

Tests used:
[1] = test system: CD133 expression in a liver cancer cell line; experiment: CD133 expression (Western blotting) and CD133 ORF promoter luciferase activity after EGF treatment; type: cell-based
Procedure: After treatment with an inhibitor against an EGF downstream signaling molecule, CD133 expression was investigated. Specifically, for transfection and Western blotting, a specific gene (plasmid vector or siRNA) was expressed in cells using a transfection reagent. For general plasmid vector transfection, 24 hours after transfection, cells were harvested, and for siRNA transfection, 48 hours after transfection, cells were harvested. For Western blotting, the harvested cells were lysed in RIPA buffer, and centrifuged at 12,000 g for 20 minutes at 4° C., followed by collecting a supernatant. The collected supernatant was subjected to SDS-PAGE gel electrophoresis, and transferred onto a nitrocellulose membrane, followed by detecting the expression of a desired protein using suitable antibodies. As a result, it was observed that NF-κB is involved in EGF-induced CD133 expression (FIG. 1B). […] Cells were simultaneously transfected with the luciferase vector and a Renilla plasmid vector for quantification. Twenty-four hours after transfection, the cells were treated with EGF for 14 hours, lysed with lysis buffer and centrifuged to obtain a supernatant, and then luciferase activity was measured using the Luminometer 20/20 (FIG. 1D).

liver cancer cell line = experiment: Microscopic analysis of microvesicle and TNT formation (WGA-488/DAPI staining, confocal); type: cell-based
Procedure: The relationship between EGF and microvesicle and TNT formation was investigated by microscopic analysis. Specifically, after 14 hours of EGF treatment, cells were fixed with 4% paraformaldeyde and treated with WGA-488 and DAPI for 10 minutes to stain the cell membrane and nucleus. Fluorescence intensity was measured using an LSM700 Meta confocal microscope.

Q: With EGF: epithelial growth factor (EGF) as the substance, how does the CD133 expression regulation [1] read?
A: activates NF-κB and regulates CD133 expression at the transcription level

Q: What about the “microvesicle and TNT formation between cells” value (liver cancer cell line) of the same substance?
A: microvesicle and TNT formation increases between cells
